pIC50: −log10 of the molar value. Like-named read-outs stand apart in the source and are kept apart here.
Tests used:
Human recombinant PDE4B2 = Human recombinant PDE4B2 (Homo sapiens (Human), UniProt Q07343); assay: PDE4B2 HTRF assay; format: biochemical
Method: PDE4B2 activity is detected using the LANCE Ultra cAMP homogeneous time resolved fluorescence resonance energy transfer (TR-FRET) assay from Perkin Elmer. The assay is based on the competition between the europium (Eu) chelate-labeled cAMP tracer and sample cAMP for binding sites on cAMP-specific monoclonal antibodies (mAb) labelled with the ULight™ dye. The assay is carried out in 384-well low volume plates in a volume of 10 μl. Human recombinant PDE4B2 (80 pM) is incubated for 2 h with 3 nM cAMP in buffer containing 1×HBSS, 5 mM HEPES, 3 mM MgCl2, 0.1% BSA, pH 7.4 with or without test compounds. The enzymatic reactions are efficiently stopped by the addition of 500 μM IBMX present in the combined Stop/Detection buffer containing europium (Eu) chelate-labeled cAMP tracer and cAMP-specific monoclonal antibodies (mAb) labelled with the ULight™ dye. […] IC50 values are determined from competition curves using a non-linear curve fitting program.

[1] = biological target: Human M3 receptor membranes (Homo sapiens (Human), UniProt P20309); assay: M3 Receptor radioligand binding assay
Method: M3 Receptor Radioligand Binding Assay:
The assay is carried out in 96-well polypropylene plates in a volume of 250 μl. […] The final assay concentration of DMSO is 0.5% (v/v). The plates are sealed and incubated for 2 h at room temperature on an orbital shaker (slow speed). Membranes are harvested onto 96-well unifilter GF/C filter plates pre-treated with 0.5% polyethyleneimine (v/v), using a filter manifold, washed four times with 200 μl of assay buffer. The plates are dried before addition of 50 μl of microscint-0, sealed then read in a Trilux Microbeta scintillation counter. IC50 values are determined from competition curves using a non-linear curve fitting program. Ki values are calculated from IC50 values by the Cheng and Prusoff equation.

[2] = PDE4B2 HTRF assay, read-out: PDE4B2 IC50 activity
[3] = M3 Receptor radioligand binding assay, read-out: M3 IC50 activity

Sequence of Human recombinant PDE4B2 (Q07343 other isoform, or with tags, fused parts or gaps): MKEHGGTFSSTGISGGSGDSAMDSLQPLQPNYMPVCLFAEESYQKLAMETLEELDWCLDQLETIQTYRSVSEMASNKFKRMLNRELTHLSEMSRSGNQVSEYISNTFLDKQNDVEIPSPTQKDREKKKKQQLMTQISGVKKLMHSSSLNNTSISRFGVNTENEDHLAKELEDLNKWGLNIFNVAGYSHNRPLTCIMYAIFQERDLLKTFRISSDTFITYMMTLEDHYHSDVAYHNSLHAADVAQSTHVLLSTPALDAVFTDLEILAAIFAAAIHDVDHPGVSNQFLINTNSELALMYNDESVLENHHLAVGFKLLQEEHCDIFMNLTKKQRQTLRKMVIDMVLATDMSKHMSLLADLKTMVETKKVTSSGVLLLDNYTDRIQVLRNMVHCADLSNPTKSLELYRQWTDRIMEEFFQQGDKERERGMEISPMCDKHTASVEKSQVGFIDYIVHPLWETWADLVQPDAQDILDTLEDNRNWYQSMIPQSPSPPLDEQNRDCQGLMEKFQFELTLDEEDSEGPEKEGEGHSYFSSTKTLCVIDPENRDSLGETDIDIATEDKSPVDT
Sequence of Human M3 receptor membranes (P20309 whole entry): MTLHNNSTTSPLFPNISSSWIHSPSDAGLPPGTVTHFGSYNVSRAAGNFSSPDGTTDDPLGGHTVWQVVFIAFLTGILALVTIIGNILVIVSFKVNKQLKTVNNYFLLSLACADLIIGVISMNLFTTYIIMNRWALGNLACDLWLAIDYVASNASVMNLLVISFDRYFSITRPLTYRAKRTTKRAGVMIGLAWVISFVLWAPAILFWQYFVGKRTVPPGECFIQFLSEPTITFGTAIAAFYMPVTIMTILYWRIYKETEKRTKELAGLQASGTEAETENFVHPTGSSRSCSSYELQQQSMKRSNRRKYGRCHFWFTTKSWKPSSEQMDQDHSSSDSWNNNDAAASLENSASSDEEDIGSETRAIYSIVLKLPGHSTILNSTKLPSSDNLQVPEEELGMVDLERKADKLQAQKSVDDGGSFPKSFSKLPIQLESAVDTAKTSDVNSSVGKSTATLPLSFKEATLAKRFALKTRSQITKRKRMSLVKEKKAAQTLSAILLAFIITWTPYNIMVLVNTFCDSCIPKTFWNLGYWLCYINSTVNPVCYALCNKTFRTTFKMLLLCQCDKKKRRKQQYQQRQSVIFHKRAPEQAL

Row | Compound | pIC50 (Human recombinant PDE4B2; [2]) | pIC50 [1, 3] | further results
1 | COc1ccc([C@H](Cc2c(Cl)c[n+]([O-])cc2Cl)OC(=O)c2ccc(CNC(C(=O)OCC3(C)CCN(C)CC3)c3ccccc3)s2)cc1OC (mixture of isomers) [Example 2, [(1S)-2-(3,5-dichloro-1-oxido-pyridin-1-ium-4-yl)-1-(3,4-dimethoxyphenyl)ethyl]5-[[[2-[(1,4-dimethyl-4-piperidyl)methoxy]-2-oxo-1-phenyl-ethyl]amino]methyl]thiophene-2-carboxylate] | 8.00 to 9.00 | 7.00 to 8.00 | –
2 | COc1ccc([C@H](Cc2c(Cl)c[n+]([O-])cc2Cl)OC(=O)c2ccc(CNCC(O)(C(=O)OCC3CCN(C)CC3)c3cccs3)s2)cc1OC (stereo partly drawn) [Example 1, [(1S)-2-(3,5-dichloro-1-oxido-pyridin-1-ium-4-yl)-1-(3,4-dimethoxyphenyl)ethyl]5-[[[2-hydroxy-3-[(1-methyl-4-piperidyl)methoxy]-3-oxo-2-(2-thienyl)propyl]amino]methyl]-thiophene-2-carboxylate] | – | – | pIC50 (Human recombinant PDE4B2): 8.00 to 9.00; pIC50 [1]: 7.00 to 8.00
3 | COc1ccc([C@H](Cc2c(Cl)c[n+]([O-])cc2Cl)OC(=O)c2ccc(CNC(C(=O)OCC3(F)CCN(C)CC3)c3ccccc3)s2)cc1OC (stereo partly drawn) [Example 3, [(1S)-2-(3,5-dichloro-1-oxido-pyridin-1-ium-4-yl)-1-(3,4-dimethoxyphenyl)ethyl] 5-[[[2-[(4-fluoro-1-methyl-4-piperidyl)methoxy]-2-oxo-1-phenyl-ethyl]amino]methyl]thiophene-2-carboxylate] | 8.00 to 9.00 | – | –
4 | COc1ccc(C(Cc2c(Cl)c[n+]([O-])cc2Cl)OC(=O)c2ccc(CNC(C(=O)OCC3CCN(C)CC3)c3ccccc3)s2)cc1OC1CCCC1 (stereo not drawn) [Example 5, [1-[3-(cyclopentoxy)-4-methoxy-phenyl]-2-(3,5-dichloro-1-oxido-pyridin-1-ium-4-yl)ethyl] 5-[[[2-[(1-methyl-4-piperidyl)methoxy]-2-oxo-1-phenyl-ethyl]amino]methyl]thiophene-2-carboxylate] | 8.00 to 9.00 | 8.00 to 9.00 | –
5 | COc1ccc(C(Cc2c(Cl)c[n+]([O-])cc2Cl)OC(=O)c2ccc(CNC(C(=O)OCC3CCN(C)CC3)c3ccccc3)s2)cc1OC1CCCC1 (stereo not drawn) [Example 6, [1-[3-(cyclopentoxy)-4-methoxy-phenyl]-2-(3,5-dichloro-1-oxido-pyridin-1-ium-4-yl)ethyl] 5-[[[2-[(1-methyl-4-piperidyl)methoxy]-2-oxo-1-phenyl-ethyl]amino]methyl]thiophene-2-carboxylate] | – | 8.00 to 9.00 | –
6 | COc1ccc([C@H](Cc2c(Cl)c[n+]([O-])cc2Cl)OC(=O)c2ccc(CNCC(C(=O)OCC3CCN(C)CC3)c3ccccc3)s2)cc1OC (stereo partly drawn) [Example 7, [(1S)-2-(3,5-dichloro-1-oxido-pyridin-1-ium-4-yl)-1-(3,4-dimethoxyphenyl)ethyl]5-[[[3-[(1-methyl-4-piperidyl)methoxy]-3-oxo-2-phenyl-propyl]amino]methyl]thiophene-2-carboxylate] | 8.00 to 9.00 | 7.00 to 8.00 | –
7 | CCN1CCC(COC(=O)C(NCc2ccc(C(=O)O[C@@H](Cc3c(Cl)c[n+]([O-])cc3Cl)c3ccc(OC)c(OC)c3)s2)c2ccccc2)CC1 (stereo partly drawn) [Example 19] | > 9.00 | – | –
8 | COc1ccc([C@H](Cc2c(Cl)c[n+]([O-])cc2Cl)OC(=O)c2ccc(CNC(C(=O)OC[C@@H]3CCCN(C)C3)c3ccccc3)s2)cc1OC (stereo partly drawn) [Example 50, [(1S)-2-(3,5-dichloro-1-oxido-pyridin-1-ium-4-yl)-1-(3,4-dimethoxyphenyl)ethyl]5-[[[2-[[(3R)-1-methyl-3-piperidyl]methoxy]-2-oxo-1-phenyl-ethyl]amino]methyl]thiophene-2-carboxylate] | – | 8.00 to 9.00 | –
9 | COc1ccc([C@H](Cc2c(Cl)c[n+]([O-])cc2Cl)OC(=O)c2ccc(CNC(CO)(C(=O)OC[C@@H]3CCN(C)C3)c3ccccc3)s2)cc1OC (stereo partly drawn) [Example 116, [(1S)-2-(3,5-dichloro-1-oxido-pyridin-1-ium-4-yl)-1-(3,4-dimethoxyphenyl)ethyl] 5-[[[1-(hydroxymethyl)-2-[[(3R)-1-methylpyrrolidin-3-yl]methoxy]-2-oxo-1-phenyl-ethyl]amino]methyl]thiophene-2-carboxylate] | 8.00 to 9.00 | – | –
10 | COc1ccc([C@H](Cc2c(Cl)c[n+]([O-])cc2Cl)OC(=O)c2ccc(CNC(C(=O)OCC3CCN(C)CC3)c3ccccc3OC)s2)cc1OC (stereo partly drawn) [Example 118] | > 9.00 | – | –
11 | CCOc1cc(C(Cc2c(Cl)c[n+]([O-])cc2Cl)OC(=O)c2ccc(CNC(C(=O)OCC3CCN(C)CC3)c3cccc(O)c3)s2)ccc1OC (stereo not drawn) [Example 120] | > 9.00 | – | –

More lines, main results first:

Row | pIC50 (Human recombinant PDE4B2; [2]) | pIC50 [1, 3] | Compound | further results
12 | > 9.00 | 8.00 to 9.00 | COc1ccc([C@H](Cc2c(Cl)c[n+]([O-])cc2Cl)OC(=O)c2ccc(CNC(CO)(C(=O)OCC3CCN(C)CC3)c3cccs3)s2)cc1OC (mixture of isomers) [Example 37, [(1S)-2-(3,5-dichloro-1-oxido-pyridin-1-ium-4-yl)-1-(3,4-dimethoxyphenyl)ethyl]5-[[[1-(hydroxymethyl)-2-[(1-methyl-4-piperidyl)methoxy]-2-oxo-1-(2-thienyl)ethyl]amino]methyl]thiophene-2-carboxylate] | –
13 | 8.00 to 9.00 | 8.00 to 9.00 | CN1CCC(COC(=O)C(NCc2ccc(C(=O)O[C@@H](Cc3c(Cl)c[n+]([O-])cc3Cl)c3ccc(OC(F)F)c(OCC4CC4)c3)s2)c2cccc(O)c2)CC1 (mixture of isomers) [Example 46, [(1S)-1-[3-(cyclopropylmethoxy)-4-(difluoromethoxy)phenyl]-2-(3,5-dichloro-1-oxido-pyridin-1-ium-4-yl)ethyl]5-[[[1-(3-hydroxyphenyl)-2-[(1-methyl-4-piperidyl)methoxy]-2-oxo-ethyl]amino]methyl]thiophene-2-carboxylate] | –
14 | 8.00 to 9.00 | 7.00 to 8.00 | COc1ccc([C@H](Cc2c(Cl)c[n+]([O-])cc2Cl)OC(=O)c2ccc(CNC(C(=O)OCC3CCN(C(C)C)CC3)c3ccccc3)s2)cc1OC (single isomer, unassigned) [Example 42] | –
15 | 8.00 to 9.00 | – | COc1ccc([C@H](Cc2c(Cl)c[n+]([O-])cc2Cl)OC(=O)c2ccc(CNC(C(=O)OCCN3CCCC3)c3ccccc3)s2)cc1OC (stereo partly drawn) [Example 21, [(1S)-2-(3,5-dichloro-1-oxido-pyridin-1-ium-4-yl)-1-(3,4-dimethoxyphenyl)ethyl] 5-[[[2-oxo-1-phenyl-2-(2-pyrrolidin-1-ylethoxy)ethyl]amino]methyl]thiophene-2-carboxylate] | –
16 | – | 8.00 to 9.00 | COc1ccc([C@H](Cc2c(Cl)c[n+]([O-])cc2Cl)OC(=O)c2ccc(CNC(C(=O)OC[C@H]3CCCN(C)C3)c3ccccc3)s2)cc1OC (stereo partly drawn) [Example 26, [(1S)-2-(3,5-dichloro-1-oxido-pyridin-1-ium-4-yl)-1-(3,4-dimethoxyphenyl)ethyl] 5-[[[2-[[(3S)-1-methyl-3-piperidyl]methoxy]-2-oxo-1-phenyl-ethyl]amino]methyl]thiophene-2-carboxylate] | –
17 | – | 7.00 to 8.00 | COc1ccc([C@H](Cc2c(Cl)c[n+]([O-])cc2Cl)OC(=O)c2ccc(CNC(C(=O)OC[C@H]3CCCCN3C)c3ccccc3)s2)cc1OC (stereo partly drawn) [Example 30, [(1S)-2-(3,5-dichloro-1-oxido-pyridin-1-ium-4-yl)-1-(3,4-dimethoxyphenyl)ethyl] 5-[[[2-[[(2R)-1-methyl-2-piperidyl]methoxy]-2-oxo-1-phenyl-ethyl]amino]methyl]thiophene-2-carboxylate] | –
18 | – | 8.00 to 9.00 | COc1ccc([C@H](Cc2c(Cl)c[n+]([O-])cc2Cl)OC(=O)c2ccc(CNC(C)(C(=O)OCC3CCN(C)CC3)c3ccccc3)s2)cc1OC (stereo partly drawn) [Example 34, [(1S)-2-(3,5-dichloro-1-oxido-pyridin-1-ium-4-yl)-1-(3,4-dimethoxyphenyl)ethyl] 5-[[[1-methyl-2-[(1-methyl-4-piperidyl)methoxy]-2-oxo-1-phenyl-ethyl]amino]methyl]thiophene-2-carboxylate] | –
19 | – | 8.00 to 9.00 | COc1ccc([C@H](Cc2c(Cl)c[n+]([O-])cc2Cl)OC(=O)c2ccc(CNC(C(=O)OCC3CCN(C)CC3)c3cccc(O)c3)s2)cc1OC (stereo partly drawn) [Example 41, [(1S)-2-(3,5-dichloro-1-oxido-pyridin-1-ium-4-yl)-1-(3,4-dimethoxyphenyl)ethyl]5-[[[1-(3-hydroxyphenyl)-2-[(1-methyl-4-piperidyl)methoxy]-2-oxo-ethyl]amino]methyl]thiophene-2-carboxylate] | –
20 | – | 7.00 to 8.00 | COc1ccc(C(Cc2c(Cl)c[n+]([O-])cc2Cl)OC(=O)c2ccc(CNC(C(=O)OCC3CCN(C)CC3)c3cccc(O)c3)s2)cc1OCC1CC1 (stereo not drawn) [Example 48, [1-[3-(cyclopropylmethoxy)-4-methoxy-phenyl]-2-(3,5-dichloro-1-oxido-pyridin-1-ium-4-yl)ethyl]5-[[[1-(3-hydroxyphenyl)-2-[(1-methyl-4-piperidyl)methoxy]-2-oxo-ethyl]amino]methyl]thiophene-2-carboxylate] | –
